Like-named read-outs stand apart in the source and are kept apart here.
Experiments:
[1] = system: T-Rex 293 cell line SC3 cells having increased expression of androgen receptor protein due to exposure to doxycycline; experiment: Cellular growth inhibition assay, T-Rex 293 SC3 cells with doxycycline (CellTiter-Glo, 72 hours); format: cell-based; conditions: T-Rex 293 SC3 cells with increased androgen receptor expression due to doxycycline (10 ng/mL)
Summary of the method: (§1)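 Growth inhibition is measured in an inducible AR-expressing T-Rex 293 clone, SC3, cultured with or without 10 ng/mL doxycycline in hormone-depleted medium. Test compounds are applied for 72 hours. GI50 values derive from CellTiter-Glo 2.0 signal fitted by four-parameter regression.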

[2] = system: T-Rex 293 cell line SC3 cells lacking increased expression of androgen receptor protein; experiment: Cellular growth inhibition assay, T-Rex 293 SC3 cells without doxycycline (CellTiter-Glo, 72 hours); format: cell-based; conditions: T-Rex 293 cell line SC3 cells not exposed to doxycycline (lacking increased androgen receptor expression)
Summary of the method: as §1

[3] = system: VCaP cells; experiment: Cellular growth inhibition assay for VCaP cells (CellTiter-Glo, 72 hours); format: cell-based, human
Summary of the method: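 Luminescent viability signal after 72 h of compound exposure gave GI50 values by four-parameter nonlinear regression. Compounds were added in 0.5% DMSO to cells plated 24 h earlier at 5000/well in DMEM containing 10% FBS.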

[4] = system: T47D cells; experiment: Cellular growth inhibition assay for T47D cells (CellTiter-Glo, 72 hours); format: cell-based, human; conditions: 72 hours treatment
Experimental: T47D cells were purchased from American Type Cell Culture (ATCC Cat #HTB-133) and then seeded on poly-D-lysine coated, black clear-bottom 384-well plates at 3000/well in 25 μL Dulbecco's Modified Eagle Medium (DMEM) supplemented with 10% w/w Fetal bovine serum (FBS), 0.2 units/mL recombinant human insulin (Gibco Cat #12585014), and 1% w/w Pen-Strep. Pen-Strep is a commercially available mixture of penicillin G and streptomycin, which is used in mammalian cell culture media to prevent bacterial contamination. Dulbecco's Modified Eagle Medium (DMEM) supplemented with 10% w/w fetal bovine serum (FBS), 0.2 units/mL recombinant human insulin, and 1% w/w Pen-Strep is herein referred to as Treatment Medium. Following seeding of cells in the plates, the plates were spun at 300×g for 30 seconds, then equilibrated to room temperature for 30 minutes, and then deposited in a humidified tissue culture incubator maintained at 37° C. with 5% CO2.
At 24 hours after seeding of the cells, dilutions of test compound were prepared in DMSO and dissolved in Treatment Medium, to achieve a final DMSO concentration of 0.5% w/w, thereby providing the Test Compound Solution. A 25 μL aliquot of the Test Compound Solution was added to cells in the well plates. An equal volume of a solution containing DMSO and Treatment Medium was used as a negative control. Following treatment of cells with Test Compound Solution or said equal volume of a solution containing DMSO and Treatment Medium, the plates were spun at 300×g for 30 seconds, and then left in an incubator for 72 hours.
At the end of the treatment duration, cell viability was quantified with CellTiter-Glo 2.0 reagent (Promega Cat #G9243). For this purpose, plates were equilibrated to room temperature for 30 minutes, and then 25 μL of CellTiter-Glo 2.0 reagent was added to cells in the plate wells. Plates were then agitated on a shaker for two minutes at 500 rpm and subsequently incubated at room temperature for 10 minutes. Following incubation, the plates were spun at 3000×g for 30 seconds, then sealed with an optical adhesive cover, and luminescence readings were measured with an EnVision Plate Reader (Perkin Elmer).
Data was normalized using zero luminescence for baseline. A four-parameter non-linear regression curve fit was applied to dose-response data in GraphPad Prism data analysis software to determine the half-maximal growth inhibitory concentration (GI50) for each test compound.

| SMILES | GI50 ([1]; 72 h) | GI50 ([2]; 72 h) | GI50 ([3]; Homo sapiens, VCaP, 72 h) | GI50 ([4]; Homo sapiens, T47D, 72 h) | GI50 [2] | GI50 [4] | GI50 [1] | GI50 [3] |
| --- | --- | --- | --- | --- | --- | --- | --- | --- |
| Cc1sc2c(c1C)C(c1ccc(O[C@H]3C[C@@]4(CCCN(c5ccc(C(=O)N[C@H]6CC[C@H](Oc7ccc(C#N)c(Cl)c7)CC6)nn5)C4)C3)cc1)=N[C@@H](Cc1ncco1)c1nnc(C)n1-2 [I-92] | < 500 nM | < 500 nM | < 500 nM | 500 to 1500 nM | – | – | – | – |
| Cc1sc2c(c1C)C(c1ccc(O[C@H]3C[C@]4(CCCN(c5ccc(C(=O)N[C@H]6CC[C@H](Oc7ccc(C#N)c(Cl)c7)CC6)nn5)C4)C3)cc1)=N[C@@H](C)c1nnc(C)n1-2 [I-350] | < 500 nM | > 3000 nM | < 500 nM | 500 to 1500 nM | – | – | – | – |
| Cc1sc2c(c1C)C(c1ccc(N3CCC4(CCCN(c5ccc(C(=O)N[C@H]6CC[C@H](Oc7ccc(C#N)c(Cl)c7)CC6)nn5)C4)CC3)cc1)=N[C@@H](C)c1nnc(C)n1-2 [I-427] | < 500 nM | – | < 500 nM | – | 500 to 1500 nM | 500 to 1500 nM | – | – |
| Cc1sc2c(c1C)C(c1ccc(OC3CC4(CCN(c5ccc(C(=O)N[C@H]6CC[C@H](Oc7ccc(C#N)c(Cl)c7)CC6)cc5)CC4)C3)cc1)=N[C@@H](Cc1ncco1)c1nnc(C)n1-2 [I-108] | < 500 nM | < 500 nM | < 500 nM | < 500 nM | – | – | – | – |
| Cc1sc2c(c1C)C(c1ccc([C@H]3C[C@H]([C@H]4CCCN(c5ccc(C(=O)N[C@H]6CC[C@H](Oc7ccc(C#N)c(Cl)c7)CC6)nn5)C4)C3)cc1)=N[C@@H](Cc1ncco1)c1nnc(C)n1-2 [I-375] | < 500 nM | > 3000 nM | < 500 nM | > 3000 nM | – | – | – | – |
| Cc1sc2c(c1C)C(c1ccc(COC3(C)CC4(CN(c5ccc(C(=O)N[C@H]6CC[C@H](Oc7ccc(C#N)c(Cl)c7)CC6)nn5)C4)C3)cc1)=N[C@@H](Cc1ncco1)c1nnc(C)n1-2 [I-441] | < 500 nM | < 500 nM | < 500 nM | < 500 nM | – | – | – | – |
| Cc1sc2c(c1C)C(c1ccc(CC[C@H]3CC[C@@]4(CCCN(c5ccc(C(=O)N[C@H]6CC[C@H](Oc7ccc(C#N)c(Cl)c7)CC6)nn5)C4)C3)cc1)=N[C@H](Cc1ncco1)c1nnc(C)n1-2 [I-215] | < 500 nM | < 500 nM | < 500 nM | < 500 nM | – | – | – | – |
| Cc1sc2c(c1C)C(c1ccc(O[C@H]3C[C@]4(CCCN(c5ccc(C(=O)N[C@H]6CC[C@H](Oc7ccc(C#N)c(Cl)c7)CC6)nn5)C4)C3)cc1)=N[C@@H](Cc1ncco1)c1nnc(C)n1-2 [I-93] | < 500 nM | < 500 nM | < 500 nM | 500 to 1500 nM | – | – | – | – |
| Cc1sc2c(c1C)C(c1ccc(CCC3CCC4CN(c5ccc(C(=O)N[C@H]6CC[C@H](Oc7ccc(C#N)c(Cl)c7)CC6)nn5)CCN4C3)cc1)=NC(Cc1ncco1)c1nnc(C)n1-2 (stereo partly shown) [I-403] | – | – | – | – | < 500 nM | < 500 nM | < 500 nM | < 500 nM |
| Cc1sc2c(c1C)C(c1ccc(C#CC3CC4(CCCN(c5ccc(C(=O)N[C@H]6CC[C@H](Oc7ccc(C#N)c(Cl)c7)CC6)nn5)C4)C3)cc1)=NCc1nnc(C)n1-2 (stereo partly shown) [I-420] | < 500 nM | > 3000 nM | < 500 nM | 1500 to 3000 nM | – | – | – | – |
| Cc1sc2c(c1C)C(c1ccc(N3CCC4(CC3)CC(Cc3ccc(C(=O)N[C@H]5CC[C@H](Oc6ccc(C#N)c(Cl)c6)CC5)nn3)C4)cc1)=NC(Cc1ncco1)c1nnc(C)n1-2 (stereo partly shown) [I-416] | – | – | – | – | 500 to 1500 nM | < 500 nM | < 500 nM | < 500 nM |
| Cc1sc2c(c1C)C(c1ccc(C[C@H]3C[C@@]4(CCCN(c5ccc(C(=O)N[C@H]6CC[C@H](Oc7ccc(C#N)c(Cl)c7)CC6)nn5)C4)C3)cc1)=N[C@@H](Cc1ncco1)c1nnc(C)n1-2 [I-118] | > 3000 nM | > 3000 nM | 1500 to 3000 nM | 1500 to 3000 nM | – | – | – | – |
| Cc1sc2c(c1C)C(c1ccc(N3CCC4(CCCN(c5ccc(C(=O)N[C@H]6CC[C@H](Oc7ccc(C#N)c(Cl)c7)CC6)nn5)C4)CC3)cc1)=NCc1nnc(C)n1-2 [I-422] | < 500 nM | > 3000 nM | < 500 nM | 500 to 1500 nM | – | – | – | – |
